ChEMBL document CHEMBL1909046, “DrugMatrix in vitro pharmacology data”

Legend:
Calcitonin receptor = target: T1, Calcitonin receptor (Homo sapiens, UniProt P30988); type: cell membranes, Membrane; details: t47d; also: in other assays of this panel Not Active means under 50% inhibition at 10 µM
T1 sequence (P30988 whole entry): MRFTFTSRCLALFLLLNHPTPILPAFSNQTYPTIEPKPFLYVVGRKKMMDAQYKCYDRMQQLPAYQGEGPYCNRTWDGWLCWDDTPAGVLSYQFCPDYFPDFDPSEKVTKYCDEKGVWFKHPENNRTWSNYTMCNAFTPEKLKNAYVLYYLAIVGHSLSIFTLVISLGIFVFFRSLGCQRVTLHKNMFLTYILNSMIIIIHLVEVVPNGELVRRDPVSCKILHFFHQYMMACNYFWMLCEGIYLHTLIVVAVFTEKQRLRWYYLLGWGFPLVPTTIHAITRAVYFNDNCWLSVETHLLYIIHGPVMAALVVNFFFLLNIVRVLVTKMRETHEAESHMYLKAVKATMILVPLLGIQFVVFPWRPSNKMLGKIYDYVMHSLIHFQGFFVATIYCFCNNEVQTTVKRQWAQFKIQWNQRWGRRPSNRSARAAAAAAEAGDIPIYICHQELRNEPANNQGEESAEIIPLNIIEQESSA

[1] = target: T2, Nitric oxide synthase, inducible (Mus musculus, UniProt P29477); design: species or system Escherichia coli;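 also: inhibition of iNOS enzyme activity measured with L-arginine as substrate; in other assays of this panel Not Active means under 50% inhibition at 10 µM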
T2 sequence (P29477 whole entry): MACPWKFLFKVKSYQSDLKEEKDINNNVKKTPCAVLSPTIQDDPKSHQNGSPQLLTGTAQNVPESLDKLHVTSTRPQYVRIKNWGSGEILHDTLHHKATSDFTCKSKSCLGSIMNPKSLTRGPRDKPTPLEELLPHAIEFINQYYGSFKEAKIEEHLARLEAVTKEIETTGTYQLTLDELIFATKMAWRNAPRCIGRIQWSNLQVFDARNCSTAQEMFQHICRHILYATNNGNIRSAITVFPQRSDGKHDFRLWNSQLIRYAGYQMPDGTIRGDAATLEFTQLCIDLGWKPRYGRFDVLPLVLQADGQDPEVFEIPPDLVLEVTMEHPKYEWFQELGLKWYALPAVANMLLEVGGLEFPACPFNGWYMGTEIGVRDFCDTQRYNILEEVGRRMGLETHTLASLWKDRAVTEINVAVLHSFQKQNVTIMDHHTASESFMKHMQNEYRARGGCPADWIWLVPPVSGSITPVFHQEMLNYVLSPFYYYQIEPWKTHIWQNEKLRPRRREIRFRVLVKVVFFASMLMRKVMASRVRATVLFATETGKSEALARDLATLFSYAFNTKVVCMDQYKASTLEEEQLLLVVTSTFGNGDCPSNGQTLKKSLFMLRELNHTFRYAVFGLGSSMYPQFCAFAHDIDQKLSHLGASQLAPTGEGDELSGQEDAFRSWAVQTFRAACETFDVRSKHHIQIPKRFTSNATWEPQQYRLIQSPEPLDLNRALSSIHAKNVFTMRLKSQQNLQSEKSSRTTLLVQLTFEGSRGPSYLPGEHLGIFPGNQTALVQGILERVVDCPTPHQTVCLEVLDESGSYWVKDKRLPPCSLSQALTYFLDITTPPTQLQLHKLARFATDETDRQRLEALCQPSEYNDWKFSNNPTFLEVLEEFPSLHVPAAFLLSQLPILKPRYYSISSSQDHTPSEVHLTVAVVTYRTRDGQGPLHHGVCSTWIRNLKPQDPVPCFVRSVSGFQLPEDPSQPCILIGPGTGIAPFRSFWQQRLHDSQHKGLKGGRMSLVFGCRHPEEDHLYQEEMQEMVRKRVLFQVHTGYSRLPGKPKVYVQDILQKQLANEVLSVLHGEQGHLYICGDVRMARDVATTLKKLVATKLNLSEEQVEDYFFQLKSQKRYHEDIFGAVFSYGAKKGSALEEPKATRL

[2] = target: T3, Muscarinic acetylcholine receptor M5 (Homo sapiens, UniProt P08912); type: cell membranes, CHO-K1, Membrane; also: in other assays of this panel Not Active means under 50% inhibition at 10 µM
T3 sequence (P08912 whole entry): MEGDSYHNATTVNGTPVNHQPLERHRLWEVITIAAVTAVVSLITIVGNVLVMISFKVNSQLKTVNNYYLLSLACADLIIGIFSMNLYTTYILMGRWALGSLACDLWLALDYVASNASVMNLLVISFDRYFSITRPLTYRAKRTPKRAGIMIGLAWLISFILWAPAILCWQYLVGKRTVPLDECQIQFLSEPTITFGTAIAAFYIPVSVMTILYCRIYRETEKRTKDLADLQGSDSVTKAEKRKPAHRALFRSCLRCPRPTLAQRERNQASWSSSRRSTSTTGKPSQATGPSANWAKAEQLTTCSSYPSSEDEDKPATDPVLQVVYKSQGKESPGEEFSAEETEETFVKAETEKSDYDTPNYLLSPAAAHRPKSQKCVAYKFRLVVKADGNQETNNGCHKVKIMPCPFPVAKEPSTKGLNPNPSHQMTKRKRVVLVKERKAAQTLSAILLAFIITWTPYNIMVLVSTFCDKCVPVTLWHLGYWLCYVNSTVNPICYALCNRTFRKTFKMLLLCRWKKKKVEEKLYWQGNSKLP

[3] = target: Epidermal growth factor receptor (Homo sapiens, UniProt P00533); assay: DRUGMATRIX: Protein Tyrosine Kinase, EGF Receptor enzyme inhibition (substrate: Poly(Glu:Tyr)); type: cell-based, Insect cells; details: Not Active = under 50% inhibition at 10 µM
Sequence of Epidermal growth factor receptor (P00533 whole entry): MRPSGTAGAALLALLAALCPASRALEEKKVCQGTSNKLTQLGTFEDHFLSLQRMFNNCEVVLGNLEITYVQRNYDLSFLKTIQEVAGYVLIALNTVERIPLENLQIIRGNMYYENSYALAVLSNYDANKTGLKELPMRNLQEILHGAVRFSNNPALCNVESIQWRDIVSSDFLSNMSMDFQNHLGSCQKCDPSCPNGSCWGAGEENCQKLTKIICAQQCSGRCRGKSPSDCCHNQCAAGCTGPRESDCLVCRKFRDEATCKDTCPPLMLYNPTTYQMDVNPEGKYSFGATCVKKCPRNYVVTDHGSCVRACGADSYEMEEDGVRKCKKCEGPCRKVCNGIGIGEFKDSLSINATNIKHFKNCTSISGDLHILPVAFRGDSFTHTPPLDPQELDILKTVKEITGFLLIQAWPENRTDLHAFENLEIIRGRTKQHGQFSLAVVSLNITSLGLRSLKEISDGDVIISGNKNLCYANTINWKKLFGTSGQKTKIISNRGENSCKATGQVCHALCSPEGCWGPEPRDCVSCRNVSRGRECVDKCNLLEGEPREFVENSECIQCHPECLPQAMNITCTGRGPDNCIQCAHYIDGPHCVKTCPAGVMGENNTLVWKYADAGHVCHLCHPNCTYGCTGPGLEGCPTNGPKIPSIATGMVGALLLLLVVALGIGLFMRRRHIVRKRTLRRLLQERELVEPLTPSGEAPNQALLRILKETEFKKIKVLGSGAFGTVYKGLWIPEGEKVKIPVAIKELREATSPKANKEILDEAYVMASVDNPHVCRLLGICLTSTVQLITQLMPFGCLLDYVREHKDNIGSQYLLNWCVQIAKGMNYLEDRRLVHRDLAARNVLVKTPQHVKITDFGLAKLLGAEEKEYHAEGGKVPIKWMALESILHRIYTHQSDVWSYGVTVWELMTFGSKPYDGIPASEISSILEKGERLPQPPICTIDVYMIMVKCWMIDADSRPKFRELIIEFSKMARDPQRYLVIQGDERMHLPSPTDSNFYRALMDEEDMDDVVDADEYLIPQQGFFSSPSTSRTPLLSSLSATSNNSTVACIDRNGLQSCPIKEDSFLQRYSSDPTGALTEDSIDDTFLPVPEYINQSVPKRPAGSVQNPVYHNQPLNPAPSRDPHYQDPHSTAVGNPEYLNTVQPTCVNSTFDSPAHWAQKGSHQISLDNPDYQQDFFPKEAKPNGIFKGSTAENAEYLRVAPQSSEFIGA

Nitric oxide synthase 1 = Nitric oxide synthase 1 (Rattus norvegicus, UniProt P29476); type: tissue-based, Cerebellum; also: in other assays of this panel Not Active means under 50% inhibition at 10 µM
Sequence of Nitric oxide synthase 1 (P29476 whole entry): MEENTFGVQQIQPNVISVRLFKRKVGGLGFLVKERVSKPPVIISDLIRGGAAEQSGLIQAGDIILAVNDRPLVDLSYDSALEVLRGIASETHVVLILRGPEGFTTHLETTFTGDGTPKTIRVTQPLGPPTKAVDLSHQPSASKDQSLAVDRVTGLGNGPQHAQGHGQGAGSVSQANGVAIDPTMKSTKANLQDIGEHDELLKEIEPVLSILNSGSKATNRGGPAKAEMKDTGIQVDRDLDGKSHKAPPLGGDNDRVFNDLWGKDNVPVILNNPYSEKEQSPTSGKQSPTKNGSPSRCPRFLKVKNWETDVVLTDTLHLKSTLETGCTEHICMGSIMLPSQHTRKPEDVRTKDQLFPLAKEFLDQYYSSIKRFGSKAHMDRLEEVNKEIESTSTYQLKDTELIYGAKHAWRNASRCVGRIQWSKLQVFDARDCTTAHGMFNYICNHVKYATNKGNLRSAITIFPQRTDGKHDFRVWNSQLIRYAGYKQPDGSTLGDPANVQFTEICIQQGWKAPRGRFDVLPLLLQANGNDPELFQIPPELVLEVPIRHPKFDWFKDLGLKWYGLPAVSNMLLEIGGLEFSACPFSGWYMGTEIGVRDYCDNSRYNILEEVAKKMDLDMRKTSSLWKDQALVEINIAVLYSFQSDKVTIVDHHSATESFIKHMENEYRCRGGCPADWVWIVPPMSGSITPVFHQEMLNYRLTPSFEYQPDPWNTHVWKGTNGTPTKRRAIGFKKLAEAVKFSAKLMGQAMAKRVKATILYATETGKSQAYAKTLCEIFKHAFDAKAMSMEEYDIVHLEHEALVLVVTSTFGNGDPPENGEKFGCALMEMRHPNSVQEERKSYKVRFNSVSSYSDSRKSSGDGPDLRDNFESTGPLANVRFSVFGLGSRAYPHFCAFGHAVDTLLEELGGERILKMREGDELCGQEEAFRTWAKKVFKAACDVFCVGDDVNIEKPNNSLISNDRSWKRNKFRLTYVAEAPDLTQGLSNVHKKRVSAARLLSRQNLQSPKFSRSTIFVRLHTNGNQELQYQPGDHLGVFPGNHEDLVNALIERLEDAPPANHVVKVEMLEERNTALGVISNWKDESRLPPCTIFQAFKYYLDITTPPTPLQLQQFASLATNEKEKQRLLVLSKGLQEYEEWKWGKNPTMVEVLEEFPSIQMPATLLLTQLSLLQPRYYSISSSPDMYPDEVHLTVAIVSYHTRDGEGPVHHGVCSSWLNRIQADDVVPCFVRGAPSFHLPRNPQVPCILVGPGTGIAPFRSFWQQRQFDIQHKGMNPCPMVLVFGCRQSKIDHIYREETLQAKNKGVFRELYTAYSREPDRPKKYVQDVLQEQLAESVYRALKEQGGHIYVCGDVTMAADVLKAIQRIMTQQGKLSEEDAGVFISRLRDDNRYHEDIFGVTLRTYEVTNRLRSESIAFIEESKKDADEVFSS

[4] = DRUGMATRIX: Phosphodiesterase PDE3 enzyme inhibition (substrate: [3H]cAMP + cAMP); type: tissue-based, Homo sapiens; details: platelet; Not Active = under 50% inhibition at 10 µM
Cytochrome P450 2C19 = Cytochrome P450 2C19 (Homo sapiens, UniProt P33261); details: bti-tn-5b1-4; also: in other assays of this panel Not Active means under 50% inhibition at 10 µM
Sequence of Cytochrome P450 2C19 (P33261 whole entry): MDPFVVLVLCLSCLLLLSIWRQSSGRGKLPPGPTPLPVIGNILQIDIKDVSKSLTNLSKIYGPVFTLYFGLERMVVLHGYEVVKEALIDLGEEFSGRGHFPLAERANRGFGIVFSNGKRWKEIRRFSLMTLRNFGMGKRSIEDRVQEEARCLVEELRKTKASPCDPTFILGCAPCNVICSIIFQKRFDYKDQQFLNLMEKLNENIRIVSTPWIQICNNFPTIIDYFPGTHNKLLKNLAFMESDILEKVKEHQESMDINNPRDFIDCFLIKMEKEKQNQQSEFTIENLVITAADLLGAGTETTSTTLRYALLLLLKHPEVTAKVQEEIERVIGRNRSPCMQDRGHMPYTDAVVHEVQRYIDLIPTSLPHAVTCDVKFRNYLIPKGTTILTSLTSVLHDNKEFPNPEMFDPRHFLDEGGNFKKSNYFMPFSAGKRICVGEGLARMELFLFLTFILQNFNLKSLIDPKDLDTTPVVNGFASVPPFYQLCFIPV

| Compound | IC50 (Calcitonin receptor) | IC50 [1] | IC50 ([2]; cho-k1) | IC50 ([3]; insect cells) | IC50 (Nitric oxide synthase 1) | IC50 [4] | Ki [4] | IC50 (Cytochrome P450 2C19) | Ki (Cytochrome P450 2C19) | IC50 ([2]; read-out: IC50) [µM] | Ki ([2]; read-out: Ki) [µM] | IC50 ([3]; read-out: IC50) [µM] | Ki ([2]; cho-k1) |
| --- | --- | --- | --- | --- | --- | --- | --- | --- | --- | --- | --- | --- | --- |
| O=C(O)CCCc1cccs1 | Not Active | Not Active | Not Active | Not Active | Not Active | Not Active | Not Active | Not Active | Not Active | – | – | – | – |
| COc1ccccc1N | Not Active | Not Active | Not Active | Not Active | Not Active | Not Active | Not Active | Not Active | Not Active | – | – | – | – |
| Cc1c(O)cccc1C(=O)N[C@@H](CSc1ccccc1)[C@H](O)CN1C[C@H]2CCCC[C@H]2C[C@H]1C(=O)NC(C)(C)C | Not Active | Not Active | – | – | Not Active | Not Active | Not Active | Not Active | Not Active | 86.1 | 61.8 | 55.6 | – |
| CC(O)COC[C@H]1O[C@@H]2O[C@H]3[C@H](O)[C@@H](O)[C@@H](O[C@H]4[C@H](O)[C@@H](O)[C@@H](O[C@H]5[C@H](O)[C@@H](O)[C@@H](O[C@H]6[C@H](O)[C@@H](O)[C@@H](O[C@H]7[C@H](O)[C@@H](O)[C@@H](O[C@H]8[C@H](O)[C@@H](O)[C@@H](O[C@H]1[C@H](O)[C@H]2O)O[C@@H]8COCC(C)O)O[C@@H]7COCC(C)O)O[C@@H]6COCC(C)O)O[C@@H]5COCC(C)O)O[C@@H]4COCC(C)O)O[C@@H]3COCC(C)O (stereo partly drawn) [2-HYDROXYPROPYL-BETA-CYCLODEXTRIN] | Not Active | Not Active | Not Active | Not Active | Not Active | Not Active | Not Active | Not Active | Not Active | – | – | – | – |
| NC(=O)c1cccc(N)c1 [3-AMINOBENZAMIDE] | Not Active | Not Active | Not Active | Not Active | Not Active | Not Active | Not Active | Not Active | Not Active | – | – | – | – |
| C[C@H]1O[C@H](O[C@H]2[C@H](O)[C@@H](O)[C@@H](O[C@H]3[C@H](O)[C@@H](O)C(O)O[C@@H]3CO)O[C@@H]2CO)[C@H](O)[C@@H](O)[C@@H]1N[C@H]1C=C(CO)[C@@H](O)[C@H](O)[C@H]1O (some centres undefined) [ACARBOSE] | Not Active | Not Active | Not Active | Not Active | Not Active | Not Active | Not Active | Not Active | Not Active | – | – | – | – |
| CC[C@H]1[C@@H]2C[C@H]3[C@@H]4N(C)c5ccccc5[C@]45C[C@@H]([C@@H]2[C@H]5O)N3[C@@H]1O [AJMALINE] | Not Active | Not Active | Not Active | Not Active | Not Active | Not Active | Not Active | Not Active | Not Active | – | – | – | – |
| NCCCNCCSP(=O)(O)O [AMIFOSTINE] | Not Active | Not Active | Not Active | Not Active | Not Active | Not Active | Not Active | Not Active | Not Active | – | – | – | – |
| CN(C)CCC=C1c2ccccc2CCc2ccccc21 [AMITRIPTYLINE] | Not Active | Not Active | – | Not Active | Not Active | Not Active | Not Active | Not Active | Not Active | 0.00802 | 0.00576 | – | – |
| CC(=O)Oc1ccccc1C(=O)O [ASPIRIN] | Not Active | Not Active | Not Active | Not Active | Not Active | Not Active | Not Active | Not Active | Not Active | – | – | – | – |
| CC(=O)OC[C@H]1O[C@@H](n2ncc(=O)[nH]c2=O)[C@H](OC(C)=O)[C@@H]1OC(C)=O [AZARIBINE] | Not Active | Not Active | – | Not Active | Not Active | Not Active | Not Active | Not Active | Not Active | – | – | – | Not Active |
| C[C@H]1[C@H](NC(=O)/C(=N\OC(C)(C)C(=O)O)c2csc(N)n2)C(=O)N1S(=O)(=O)O [AZTREONAM] | Not Active | Not Active | Not Active | Not Active | Not Active | Not Active | Not Active | Not Active | Not Active | – | – | – | – |
| O=C(O)CCNC(=O)c1ccc(/N=N/c2ccc(O)c(C(=O)O)c2)cc1 [BALSALAZIDE] | Not Active | Not Active | Not Active | Not Active | Not Active | Not Active | Not Active | Not Active | Not Active | – | – | – | – |
| COc1cc(OC)c(C(=O)CCCN2CCCC2)c(OC)c1 [BUFLOMEDIL] | Not Active | Not Active | Not Active | Not Active | Not Active | Not Active | Not Active | Not Active | Not Active | – | – | – | – |
| ClC(Cl)(Cl)Cl [CARBON TETRACHLORIDE] | Not Active | Not Active | Not Active | Not Active | Not Active | Not Active | Not Active | Not Active | Not Active | – | – | – | – |
| CO/N=C(\C(=O)N[C@@H]1C(=O)N2C(C(=O)O)=C(COC(C)=O)CS[C@H]12)c1csc(N)n1 [CEFOTAXIME] | Not Active | Not Active | Not Active | Not Active | Not Active | Not Active | Not Active | Not Active | Not Active | – | – | – | – |
| CNC1=Nc2ccc(Cl)cc2C(c2ccccc2)=[N+]([O-])C1 [CHLORDIAZEPOXIDE] | Not Active | Not Active | Not Active | Not Active | Not Active | Not Active | Not Active | Not Active | Not Active | – | – | – | – |
| Cc1cc(O)cc(C)c1Cl [CHLOROXYLENOL] | Not Active | Not Active | Not Active | Not Active | Not Active | Not Active | Not Active | Not Active | Not Active | – | – | – | – |
